In US20230085307A1, “PYRIDAZINONE COMPOUND AND HERBICIDE” (NISSAN CHEMICAL CORPORATION, priority 2019, published 2023):

Assays:
[1] = tested on: late watergrass; test: Test Example 1: herbicidal activity, application before weed generation under submerged conditions (Table 16, symbol A); format: in vivo, late watergrass (Echinochloa oryzicola); settings: 320 g/ha applied herbicide
In short: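 Alluvial soil was flooded to 4 cm depth, weed seeds were sown mixed and 2.5-leaf rice seedlings were transplanted. On sowing day, the compound's emulsion, diluted in water to a set dose, was applied to the water surface. Plants grew at 25–30 °C and were scored 0–5 after three weeks.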

[2] = tested on: late watergrass; test: Test Example 2: herbicidal activity, application during weed generation under submerged conditions (Table 17, symbol A); format: in vivo, late watergrass (Echinochloa oryzicola); settings: AAH 320 g/ha; application during weed generation, submerged conditions
In short: (§1)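 Effect on each weed is rated three weeks post-treatment, using the same scoring criteria as the preceding test. Plants grow from mixed-sown seed in flooded alluvial soil (4 cm water) at 25° C. to 30° C., and are treated at one to two leaves with diluted emulsion dropped onto the water.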

[3] = tested on: Japanese bulrush; test: Test Example 2: herbicidal activity, application during weed generation under submerged conditions (Table 17, symbol B); format: in vivo, Japanese bulrush (Schoenoplectus juncoides); settings: AAH 320 g/ha; application during weed generation, submerged conditions
In short: as §1

[4] = tested on: barnyard grass; test: Test Example 3: herbicidal effect by foliage application, Wagner pot (Table 18, symbol H); format: in vivo, barnyard grass (Echinochloa crus-galli); settings: 320 g/ha
In short: (§2)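 Plants were sown in alluvial soil held under 0.1–0.5 cm standing water and grown 14 days in a greenhouse at 25–30 °C. An emulsifiable formulation, water-diluted to the set dose, was then sprayed onto the foliage, and effects were scored three weeks later using previously defined criteria.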

[5] = tested on: Chinese sprangletop; test: Test Example 3: herbicidal effect by foliage application, Wagner pot (Table 18, symbol D); format: in vivo, chinese sprangletop (Leptochloa chinensis); settings: 320 g/ha
In short: as §2

[6] = tested on: southern crabgrass; test: Test Example 4: herbicidal effect by soil treatment (Table 19, symbol F); format: in vivo, southern crabgrass (Digitaria ciliaris); settings: for F: southern crabgrass, herbicidal effect rating: AAH 320 g/ha; for herbicidal effect rating, F: southern crabgrass: 320 g/ha
In short: (§3)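 In this soil treatment, the formulated compound reached the seeds only through the soil: seeds were buried about 1.5 cm deep in sterilized diluvial soil, then the diluted emulsion was sprayed over the surface. After three weeks at 25° C. to 30° C. in a greenhouse, effects were graded on criteria from an earlier test.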

[7] = tested on: blackgrass; test: Test Example 4: herbicidal effect by soil treatment (Table 19, symbol J); format: in vivo, blackgrass (Alopecurus myosuroides); settings: for J: blackgrass, herbicidal effect rating: AAH 320 g/ha; for herbicidal effect rating, J: blackgrass: 320 g/ha
In short: as §3

[8] = tested on: Italian ryegrass; test: Test Example 4: herbicidal effect by soil treatment (Table 19, symbol K); format: in vivo, Italian ryegrass (Lolium multiflorum); settings: for K: Italian ryegrass, herbicidal effect rating: AAH 320 g/ha; for herbicidal effect rating, K: Italian ryegrass: 320 g/ha
In short: as §3

[9] = tested on: windgrass; test: Test Example 4: herbicidal effect by soil treatment (Table 19, symbol L); format: in vivo, windgrass (Apera spica-venti); settings: for L: windgrass, herbicidal effect rating: AAH 320 g/ha; for herbicidal effect rating, L: windgrass: 320 g/ha
In short: as §3

[10] = tested on: velvetleaf; test: Test Example 4: herbicidal effect by soil treatment (Table 19, symbol M); format: in vivo, velvetleaf (Abutilon theophrasti); settings: for M: velvetleaf, herbicidal effect rating: AAH 320 g/ha; for herbicidal effect rating, M: velvetleaf: 320 g/ha
In short: as §3

[11] = tested on: lambsquarters; test: Test Example 4: herbicidal effect by soil treatment (Table 19, symbol O); format: in vivo, lambsquarters (Chenopodium album); settings: for O: lambsquarters, herbicidal effect rating: AAH 320 g/ha; for herbicidal effect rating, O: lambsquarters: 320 g/ha
In short: as §3

[12] = tested on: persian speedwell; test: Test Example 4: herbicidal effect by soil treatment (Table 19, symbol R); format: in vivo, Persian speedwell (Veronica persica); settings: for R: persian speedwell, herbicidal effect rating: AAH 320 g/ha; for herbicidal effect rating, R: persian speedwell: 320 g/ha
In short: as §3

[13] = tested on: southern crabgrass; test: Test Example 5: herbicidal effect by foliage application, plastic box (Table 20, symbol F); format: in vivo, southern crabgrass (Digitaria ciliaris); settings: foliage application; for effect on southern crabgrass (F): 320 g/ha, 3 weeks after application
In short: (§4)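 Plants were sown into sterilized diluvial soil under about 1.5 cm cover and kept in a greenhouse at 25° C. to 30° C. Fourteen days on, foliage received an even spray of the diluted emulsion. Herbicidal or crop effect was judged three weeks afterwards.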

[14] = tested on: Italian ryegrass; test: Test Example 5: herbicidal effect by foliage application, plastic box (Table 20, symbol K); format: in vivo, Italian ryegrass (Lolium multiflorum); settings: foliage application; for effect on Italian ryegrass (K): 320 g/ha, 3 weeks after application
In short: as §4

[15] = tested on: windgrass; test: Test Example 5: herbicidal effect by foliage application, plastic box (Table 20, symbol L); format: in vivo, windgrass (Apera spica-venti); settings: foliage application; for effect on windgrass (L): 320 g/ha, 3 weeks after application
In short: as §4

[16] = tested on: lambsquarters; test: Test Example 5: herbicidal effect by foliage application, plastic box (Table 20, symbol O); format: in vivo, lambsquarters (Chenopodium album); settings: foliage application; for effect on lambsquarters (O): 320 g/ha, 3 weeks after application
In short: as §4

[17] = tested on: persian speedwell; test: Test Example 5: herbicidal effect by foliage application, plastic box (Table 20, symbol R); format: in vivo, Persian speedwell (Veronica persica); settings: foliage application; for effect on persian speedwell (R): 320 g/ha, 3 weeks after application
In short: as §4

[18] = AAH 320 g/ha, three weeks after application

Compound	Herbicidal effect on A: late watergrass (grade 0-5) [1]	herbicidal effect rating, A: late watergrass [2]	herbicidal effect rating, B: Japanese bulrush [3]	herbicidal effect on H (barnyard grass), rating 0-5 [4]	herbicidal effect on D (Chinese sprangletop), rating 0-5 [5]	F: southern crabgrass, herbicidal effect rating [6]	J: blackgrass, herbicidal effect rating [7]	K: Italian ryegrass, herbicidal effect rating [8]	L: windgrass, herbicidal effect rating [9]	M: velvetleaf, herbicidal effect rating [10]	O: lambsquarters, herbicidal effect rating [11]	R: persian speedwell, herbicidal effect rating [12]	effect on southern crabgrass (F) [13]	effect on Italian ryegrass (K) [14]	effect on windgrass (L) [15]	effect on lambsquarters (O) [16]	effect on persian speedwell (R) [17]	herbicidal effect rating, F: southern crabgrass [6]	herbicidal effect rating, J: blackgrass [7]	herbicidal effect rating, K: Italian ryegrass [8]	also measured
COCCOCOc1c(C)nn(C)c(=O)c1-c1c(-c2ccc(OCCC3OCCO3)cc2)sc2ccccc12 [1-224]	5 (Herbicidal rate of 90% or more (almost completely withered))	3 (Herbicidal rate of 40% or more and less than 70%)	3 (Herbicidal rate of 40% or more and less than 70%)	5 (Herbicidal rate of 90% or more (almost completely withered))	3 (Herbicidal rate of 40% or more and less than 70%)	2 (Herbicidal rate of 20% or more and less than 40%)	0 (Herbicidal rate of 5% or less (almost no effect))	0 (Herbicidal rate of 5% or less (almost no effect))	0 (Herbicidal rate of 5% or less (almost no effect))	5 (Herbicidal rate of 90% or more (almost completely withered))	3 (Herbicidal rate of 40% or more and less than 70%)	3 (Herbicidal rate of 40% or more and less than 70%)	3 (Herbicidal rate of 40% or more and less than 70%)	0 (Herbicidal rate of 5% or less (almost no effect))	0 (Herbicidal rate of 5% or less (almost no effect))	4 (Herbicidal rate of 70% or more and less than 90%)	5 (Herbicidal rate of 90% or more (almost completely withered))				
COCCOCOc1c(C)nn(C)c(=O)c1-c1c(-c2ccc(OCCSC)cc2)sc2ccccc12 [1-221]	5 (Herbicidal rate of 90% or more (almost completely withered))	5 (Herbicidal rate of 90% or more (almost completely withered))	3 (Herbicidal rate of 40% or more and less than 70%)	5 (Herbicidal rate of 90% or more (almost completely withered))	5 (Herbicidal rate of 90% or more (almost completely withered))	2 (Herbicidal rate of 20% or more and less than 40%)	0 (Herbicidal rate of 5% or less (almost no effect))	5 (Herbicidal rate of 90% or more (almost completely withered))	0 (Herbicidal rate of 5% or less (almost no effect))	2 (Herbicidal rate of 20% or more and less than 40%)	4 (Herbicidal rate of 70% or more and less than 90%)	5 (Herbicidal rate of 90% or more (almost completely withered))	5 (Herbicidal rate of 90% or more (almost completely withered))	5 (Herbicidal rate of 90% or more (almost completely withered))	5 (Herbicidal rate of 90% or more (almost completely withered))	5 (Herbicidal rate of 90% or more (almost completely withered))	5 (Herbicidal rate of 90% or more (almost completely withered))				
C#CCOc1ccc(-c2sc3ccccc3c2-c2c(O)c(C)nn(C)c2=O)cc1 [1-136]	3 (Herbicidal rate of 40% or more and less than 70%)	0 (Herbicidal rate of 5% or less (almost no effect))	2 (Herbicidal rate of 20% or more and less than 40%)	5 (Herbicidal rate of 90% or more (almost completely withered))	4 (Herbicidal rate of 70% or more and less than 90%)	2 (Herbicidal rate of 20% or more and less than 40%)	0 (Herbicidal rate of 5% or less (almost no effect))	5 (Herbicidal rate of 90% or more (almost completely withered))	0 (Herbicidal rate of 5% or less (almost no effect))	3 (Herbicidal rate of 40% or more and less than 70%)	5 (Herbicidal rate of 90% or more (almost completely withered))	4 (Herbicidal rate of 70% or more and less than 90%)									F: southern crabgrass, herbicidal effect [13, 18]: 0 (Herbicidal rate of 5% or less (almost no effect)); K: Italian ryegrass, herbicidal effect [14, 18]: 5 (Herbicidal rate of 90% or more (almost completely withered)); L: windgrass, herbicidal effect [15, 18]: 5 (Herbicidal rate of 90% or more (almost completely withered)); O: lambsquarters, herbicidal effect [16, 18]: 4 (Herbicidal rate of 70% or more and less than 90%); R: persian speedwell, herbicidal effect [17, 18]: 5 (Herbicidal rate of 90% or more (almost completely withered))
CCCC(=O)Oc1c(C)nn(C)c(=O)c1-c1c(-c2ccccc2OC(F)(F)F)sc2ccc(F)cc12 [2-044]	3 (Herbicidal rate of 40% or more and less than 70%)	2 (Herbicidal rate of 20% or more and less than 40%)	3 (Herbicidal rate of 40% or more and less than 70%)	3 (Herbicidal rate of 40% or more and less than 70%)	2 (Herbicidal rate of 20% or more and less than 40%)								4 (Herbicidal rate of 70% or more and less than 90%)	0 (Herbicidal rate of 5% or less (almost no effect))	4 (Herbicidal rate of 70% or more and less than 90%)	1 (Herbicidal rate of 5% or more and less than 20%)	5 (Herbicidal rate of 90% or more (almost completely withered))	3 (Herbicidal rate of 40% or more and less than 70%)	0 (Herbicidal rate of 5% or less (almost no effect))	0 (Herbicidal rate of 5% or less (almost no effect))	herbicidal effect rating, L: windgrass [9]: 0 (Herbicidal rate of 5% or less (almost no effect)); herbicidal effect rating, M: velvetleaf [10]: 3 (Herbicidal rate of 40% or more and less than 70%); herbicidal effect rating, O: lambsquarters [11]: 5 (Herbicidal rate of 90% or more (almost completely withered)); herbicidal effect rating, R: persian speedwell [12]: 4 (Herbicidal rate of 70% or more and less than 90%)
CCCC(=O)Oc1c(C)nn(C)c(=O)c1-c1c(-c2ccc(OC(C)C)cc2)sc2ccc(F)cc12 [2-035]	5 (Herbicidal rate of 90% or more (almost completely withered))	1 (Herbicidal rate of 5% or more and less than 20%)	4 (Herbicidal rate of 70% or more and less than 90%)	5 (Herbicidal rate of 90% or more (almost completely withered))	0 (Herbicidal rate of 5% or less (almost no effect))								2 (Herbicidal rate of 20% or more and less than 40%)	0 (Herbicidal rate of 5% or less (almost no effect))	0 (Herbicidal rate of 5% or less (almost no effect))	3 (Herbicidal rate of 40% or more and less than 70%)	5 (Herbicidal rate of 90% or more (almost completely withered))	3 (Herbicidal rate of 40% or more and less than 70%)	0 (Herbicidal rate of 5% or less (almost no effect))	0 (Herbicidal rate of 5% or less (almost no effect))	herbicidal effect rating, L: windgrass [9]: 0 (Herbicidal rate of 5% or less (almost no effect)); herbicidal effect rating, M: velvetleaf [10]: 3 (Herbicidal rate of 40% or more and less than 70%); herbicidal effect rating, O: lambsquarters [11]: 5 (Herbicidal rate of 90% or more (almost completely withered)); herbicidal effect rating, R: persian speedwell [12]: 5 (Herbicidal rate of 90% or more (almost completely withered))
